Target: T1, dopa oxidase activity (tyrosinase) of human neonatal foreskin-derived melanocytes (Homo sapiens, UniProt P14679)
T1 construct: The cells were lysed for 3 hours at 4° C., and the dopa oxidase activity was measured; endogenous in cells; host or cells: human neonatal foreskin-derived melanocytes (primary), lysed with NP-40/SDS extraction buffer
T1 sequence (P14679 19-529): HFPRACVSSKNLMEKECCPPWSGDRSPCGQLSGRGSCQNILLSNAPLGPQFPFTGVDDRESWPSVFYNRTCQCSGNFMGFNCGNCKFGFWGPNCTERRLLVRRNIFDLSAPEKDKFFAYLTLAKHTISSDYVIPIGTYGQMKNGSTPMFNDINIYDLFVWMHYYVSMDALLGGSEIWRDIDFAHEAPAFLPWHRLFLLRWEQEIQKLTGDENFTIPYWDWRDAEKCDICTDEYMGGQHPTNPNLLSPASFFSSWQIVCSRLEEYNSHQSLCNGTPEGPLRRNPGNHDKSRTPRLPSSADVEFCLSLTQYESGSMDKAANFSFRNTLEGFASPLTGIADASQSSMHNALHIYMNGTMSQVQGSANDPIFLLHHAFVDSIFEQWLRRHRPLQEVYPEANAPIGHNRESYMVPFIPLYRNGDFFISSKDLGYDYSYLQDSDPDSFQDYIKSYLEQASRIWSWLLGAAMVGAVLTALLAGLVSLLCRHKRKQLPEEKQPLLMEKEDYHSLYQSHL
Assay: Measurement of dopa oxidase activity (MBTH method) in lysate of treated melanocytes
Type: cell-based
Conditions: read-out: Dopa oxidase activity (%)
Protocol: 100 μL of human neonatal foreskin-derived melanocytes were inoculated on each well of a 96-well plate to be a cell density of 1×10^4 cells/well. The medium used therein was Medium 254 to which HMGS (Human Melanocyte Growth Supplement) excluding PMA (all manufactured by Cascade Biologics Inc.) was added.
After culturing the cells for 24 hours, endothelin-1 (ET-1) which is a melanocyte activator, stem cell growth factor (SCF), α-melanocyte stimulating hormone (α-MSH), histamine and prostaglandin E2 (PGE2) were mixed and added to the each culture at a final concentration in medium of 10×10^−7 mol/m^3 in each. […]
The melanocytes which had been used in the measurement of the cell proliferation activity were washed with Phosphate-buffered saline (PBS) from which Ca^2+ and Mg^2+ had been eliminated, and 20 μL/well of an extraction buffer (0.1 M Tris-HCl (pH 7.2), 1% Nonidet P-40, 0.01% SDS, 100 μM phenylmethylsulfonyl fluoride (PMSF) and 1 μg/ml aprotinin) and 20 μL/well of an assay buffer (100 mM Sodium phosphate-buffer (pH 7.1) containing 4% dimethylformamide) were added to the cells. The cells were lysed for 3 hours at 4° C., and its dopa oxidase activity was measured. […]
Further, the values of the dopa oxidase activity are indicated as values relative to the absorbances of the instances where various plant extracts were not added. […]

## CC(=O)O[C@@H]1C[C@H](O)[C@@]23CO[C@@H](O)[C@]1(C)[C@@H]2C[C@@H](O)[C@]1(C)[C@@H]3C(=O)[C@H](OC(C)=O)[C@@]2(C)[C@H](c3ccoc3)C[C@H]3O[C@]321 [Toosendanin]
  activity at 0.1 µM: 15%

— patent US20110117038A1, “Dopa Oxidase Inhibitor, Skin-Lightening Agent and External Preparation for Skin” (Kao Corporation, priority 2009, published 2011)
